According to US6617337B1, “Use of nitroxides for the treatment of essential hypertension” (Georgetown University, priority 1997, dated 2003):

System: SHR and WKY rats
Assay: MAP and renal hemodynamics during bolus intravenous injection of Tempol in anesthetized rats
Type: in vivo, rat
Settings: for Decrease in MAP: Tempol 72 μmol/kg IV; for RBF during Tempol: dose not specified (24 and 72 μmol/kg studied)
Protocol: In the first group, the short-term actions of Tempol were determined in anesthetized rats. […] The following data was obtained:
Materials and Methods. In Examples 3 to 6, groups of male SHR and WKY rats (200 to 300 g) were maintained on tap water and standard chow (Harlan-Teklad Inc.). […] In order to do this experiment, WKY (n=6) and SHR (n=6) were anesthetized with thiobutabarbital (100 mg/kg i.p., Inactin, Research Biochemicals International) and maintained at 37° C. on a servocontrolled heated rodent operating table. A tracheostomy was performed with polyethylene PE-240 tubing, and the left jugular vein and carotid artery were cannulated with PE-50 tubing. Intravenous infusion of 1% albumin dissolved in 0.154 M NaCl solution was infused at 2 mL/h i.v. to maintain an euvolemic state. A midline incision was made, and the left renal artery was isolated. A blood-flow probe was placed around the renal artery and connected to a transit-time blood flowmeter (1RB, Transonic Systems Inc.). We have previously shown that this method of measuring real-time changes in RBF is valid in the rat (Welch et al., 1995 Am. J. Physiol. 37: F175-F178).
MAP was continuously recorded from the carotid artery using a Statham pressure transducer (model P23, Gould Instruments) and MACLab data acquisition program. After 60 minutes of equilibration, there was a basal period for measurement of MAP and RBF over 30 minutes.

[1] = SHR, Tempol 4 mg/kg intravenously
[2] = WKY, Tempol 4 mg/kg intravenously

SMILES: CC1(C)CC(O)CC(C)(C)N1[O] [Tempol, 4-hydroxy-2,2,6,6-tetramethyl-1-piperidinyloxy]
- MAP (SHR, Tempol 24 μmol/kg IV bolus): 147±4 mm Hg
- RVR (SHR, Tempol 72 μmol/kg): 17±2 mm Hg·mL^−1·min^−1
- MAP (SHR, Tempol 72 μmol/kg IV bolus): 104±9 mm Hg
- Decrease in MAP (SHR, P<0.05): 28%
- Decrease in RVR (SHR, Tempol 72 μmol/kg, P<0.05): 29%
- MAP [1]: 108±8 mm Hg
- RVR [1]: 17±2 mm Hg/ml/min
- MAP (SHR, Tempol 12 mg/kg intravenously): 80±5 mm Hg
- RBF during Tempol (SHR): 6.7 ± 0.8 mL/min
- RVR (SHR, low-dose Tempol (24 μmol/kg)): 24±3 mm Hg·mL^−1·min^−1
- MAP (WKY, Tempol 24 μmol/kg IV bolus): 114±5 mm Hg
- RVR (WKY, Tempol 72 μmol/kg): 15±1 mm Hg·mL^−1·min^−1
- MAP (WKY, Tempol 72 μmol/kg IV bolus): 96±6 mm Hg
- Decrease in MAP (WKY, P<0.05): 11%
- MAP [2]: 98±6 mm Hg
- RVR [2]: 15±1 mm Hg/ml/min
- MAP (WKY, Tempol 12 mg/kg intravenously): 99±7 mm Hg
- RBF during Tempol (WKY): 6.6 ± 0.7 mL/min
- RVR (WKY, low-dose Tempol (24 μmol/kg)): 17±1 mm Hg·mL^−1·min^−1
